Data set [1] is described as follows: logP by HPLC retention time correlation. In kind it is physicochemical. To be noted: standardized reversed phase HPLC system. Here is the method:
The logP values were recorded using HPLC analysis. Thus, the retention time of the test compound in a standardized reversed phase HPLC system is correlated with the retention times of compounds with known logP values.
In addition to the logD7.4 values, the logP values of the fluorescent probes were recorded by HPLC, i.e., after calibration of the method, the retention times were correlated with the logP values or the compounds [33]. […] Fluorescein-labeled ligands 21a and 21b are considerably more polar than the corresponding bodipy-labeled senicapoc derivatives.

On the set-up of data set [2]: method as in PMID 36315933. To be noted: previously reported values; cited from earlier work.
Data set [3] deals with T1, KCa3.1 channel in A549-3R cells (Homo sapiens, UniProt O15554).
T1 construct: the non-small cell lung cancer cell line A549-3R with a high expression of the KCa3.1 channel was employed; endogenous in cells; host or cells: A549-3R cells
Also on record: method as in PMID 36315933. As to conditions: previously reported; cited from earlier work.

The next data set has as its system KCa3.1 channels. As to conditions: read-out: IC50 (KCa3.1 channel); cited from earlier work.

Regarding `CC1=CC(C)=[N+]2C1=C(c1ccc(OCCOCCn3cc(COc4ccc(C(C(N)=O)(c5ccccc5)c5ccc(F)cc5)cc4)nn3)cc1)c1c(C)cc(C)n1[B-]2(F)F` (stereo not shown) [9a], the chromatographic logP in data set [1] was 5.4. Besides, in data set [2], the “logD7.4 ± SD (Micro Shake Flask)” value is 4.73 ± 0.03. In addition, in data set [3], the staining properties result is “promising staining properties”.

As to `NC(=O)C(c1ccccc1)(c1ccc(F)cc1)c1ccc(F)cc1` [senicapoc], in the data set with KCa3.1 channels, the IC50 is 11 nM.

What is called chromatographic logP is lipophilicity estimated from chromatographic retention. Low values mean a more hydrophilic compound, high ones a more lipophilic compound. In general, IC50 refers to the midpoint of a concentration-inhibition curve.
